In this test the test system is arterial plaques. Put plainly: In vivo therapeutic effect on arterial plaques (carotid MRI, percentage of plaque volume progression). Also on record: species or system ApoE−/− mice. The note with it: 0.66 mg rosuvastatin per kg, once every other day, 4 weeks. The method, then:
(1) A normal saline solution of free rosuvastatin was prepared, and a nanodelivery system loaded with the therapeutic agent was prepared by the method described in the above Example 2. SPF-grade ApoE−/− mice (42 mice, 5-6 weeks old, weight 20±1 g) were taken as assay animals. The mice were fed an adaptive high-fat diet (fat 10% (w/w), cholesterol 2% (w/w), sodium cholate 0.5% (w/w), and the rest being normal feed for mice) for 4 weeks, and then anaesthetized via intraperitoneal injection of 1% sodium pentobarbital (prepared by adding […] of sodium pentobarbital to 100 ml of normal saline) at a dose of 40 mg/kg. Then, the mice were fixed on the surgical plate in the supine position, and disinfected around the neck with 75% (v/v) alcohol. The neck skin was cut longitudinally, and the anterior cervical gland was bluntly separated, and the beating left common carotid artery can be observed on the left side of the trachea. The common carotid artery was carefully separated to the bifurcation. A silicone cannula with a length of 2.5 mm and an inner size of 0.3 mm was placed on the outer periphery of the left common carotid artery. […] For animals in each group, carotid MRI scans were performed before and after treatment weekly to detect plaque and lumen area, and the percentage of plaque volume progression was calculated based on the scanned thickness. […]

SMILES strings stand for the structures.

For `CC(C)c1nc(N(C)S(C)(=O)=O)nc(-c2ccc(F)cc2)c1/C=C/[C@@H](O)C[C@@H](O)CC(=O)O` [free rosuvastatin, rosuvastatin], the “therapeutic effect on plaques, intravenous administration” value (intravenous) is “cannot exhibit the therapeutic effect of reversing plaques”. Besides, the “therapeutic effect on plaques, oral administration” value (oral) was “cannot exhibit the therapeutic effect of reversing plaques”.

(Values after patent publication US20240424132A1, “ATHEROSCLEROSIS-TARGETED LIPOSOME NANOCARRIER DELIVERY SYSTEM AND PREPARATION METHOD THEREFOR” (Beijing Inno Medicine Co., Ltd., priority 2021, published 2024).)
